Test results published in patent publication US20050112198A1, “Bupropion formulation for sustained delivery” (priority 2003, published 2005).

Tests used:
[1] = crystalline solid; cited from earlier work
[2] = In-house drug-excipient compatibility / storage stability of bupropion hydrochloride; format: physicochemical; conditions: for degradation of active drug in drug-excipient mixtures: 50° C./75% RH and 40° C./75% RH
Description: In order to study the compatibility of various excipients used in the proposed invention with bupropion hydrochloride, various drug-excipient mixtures were prepared. The each excipient amount relative to drug varied from 1:1 to 1:10. […] As predicted with the active drug, it has been observed during their analysis at various time intervals by liquid chromatography that most of the excipients studied are causing degradation of the active drug with a result of two distinct degradation peaks, in which all cellulose based excipients considered to be interacting uniquely with the pure drug compared to non-cellulose based excipients. […] The above changes were more pronounced in samples studied under open conditions compared to closed condition samples. […] Such degradation could be due to impurities like peroxide, heavy metals and bleaching agents present in such materials. Even though such impurities are present within acceptable limits, the moisture content carried in them should have acted as solvent to aggravate such reactions. […] The package component seems to play a vital role for stabilizing the dosage form: high-density polyethylene (HDPE) containers with additional thickness/weight are preferred apart from maintaining sufficient quantity of adsorbent added to the packaging system to minimize moisture and oxygen/odor levels.

## CC(NC(C)(C)C)C(=O)c1cccc(Cl)c1.Cl (racemic) [Bupropion hydrochloride, (±)-1-(3-chlorophenyl)-2-[(1,1-dimethylethyl)amino]-1-propanone hydrochloride]
[1]
  water solubility: water soluble
[2]; in-house studies, normal storage conditions, without excipients
  stability of the salt form alone: stable in normal storage conditions
[2]; mixtures with Kollidon VA64, Kollidon SR, methylcellulose, colloidal silicon dioxide, magnesium stearate, enteric coating materials
  degradation of active drug in drug-excipient mixtures: minimum amount or no change
[2]; mixtures with hydroxypropyl cellulose, polyethylene oxide and sodium carboxymethyl cellulose, 1:1 to 1:10, liquid chromatography
  degradation of active drug in drug-excipient mixtures: rapid degradation
